Data as given in US6500821B1, “4-amino-1-aryl-1,5-dihydropyrrol-2-ones and process for making” (Arzneimittelwerk Dresden GmbH, priority 1999, dated 2002).

Experiments:
Vogel Conflict Test = test: Vogel Conflict Test; type: in vivo, rat; settings: for Changed number of impulses to the control in % / dose from which an anxiolytic action was detected / equally effective dose: rat; for dose from which an anxiolytic action was detected / equally effective dose: p.o.
Text: In this model, continuous access to drinking water is withheld from rats for a certain time. After this period, free access is given to drinking water, but is coupled with a mild electrical stimulation. The conflict for the animals is between accepting the electrical stimulation or going without a drink.
The reactions to a conflict situation of this type are similar to the secondary phenomena of anxiety in man. The resulting avoidance reactions can be suppressed by anxiolytic substances. As a measure of the anxiolytic action, the number of tolerated current pulses of the animals treated with the test substance is assessed in comparison to the vehicle-treated control group.

s.c. pentetrazole = test: Anticonvulsive action, s.c. pentetrazole (PTZ), mouse i.p.; type: in vivo
Method: (§1) Compounds according to the present invention were tested in vivo for their anticonvulsive action as shown in Table 1 in mice by i.p. administration, or in rats administered orally according to the internationally customary standard (Pharmac. Weekblad, Sc.Ed. 14 132 (1992) and Antiepileptic Drugs, Third Ed., Raven Press, New York 1989). [table]

elevated maze test = test: Elevated maze test; type: in vivo, mouse; settings: for Activity in % (length of stay in the open arms, control = 100): mouse, intraperitoneal
Text: In this model, mice are placed in an elevated passage system with open and closed arms as described by Pellow, S., Chopin, P., File S. E., Briley, M.: Validation of open: closed arm entries in an elevated plus-maze as a measure of anxiety in rats. J. of Neuroscience Methods 14: 149-167, 1985; Hogg, S.: A review of the validity and variability of the elevated plus-maze as an animal model of anxiety. Pharmacology Biochemistry and Behavior: 21-30, 1996. Untreated animals repeatedly try the closed passages. The inhibition of anxiety is measured by the length of stay in the open arms as a percentage of the total length of stay.

maximal electroshock [1] = test: Anticonvulsive action, maximal electroshock (MES), mouse i.p.; type: in vivo; settings: for responders at 300 mg/kg / responders at 100 mg/kg: ip, read-out: Action, % of the protected animals
Method: as §1

[2] = Octanol/water partition coefficient; type: physicochemical; settings: for logP: read-out: log P (octanol/water partition coefficient)
maximal electroshock [3] = test: Maximal electroshock, rat p.o.; type: in vivo; settings: po
Method: as §1, with “1989).” for “1989). [table]”
(§2) Analogous results were obtained for oral action.

neurotoxicity = test: Neurotoxicity, rat; type: in vivo
Method: as §1, with “1989).” for “1989). [table]”
as §2

[4] = test system: pentetrazol convulsion model; test: Pentetrazol convulsion model, rat p.o.; type: in vivo; settings: po
Method: as §1, with “1989).” for “1989). [table]”
as §2

[5] = ip, read-out: Action, % of the protected animals
[6] = ip, dose 300 mg/kg, read-out: Action, % of the protected animals

| SMILES | responders at 300 mg/kg (maximal electroshock [1]; dose 300 mg/kg) | logP [2] | melting point | responders at 100 mg/kg (maximal electroshock [1]) | responders at 100 mg/kg (s.c. pentetrazole; [5]) | responders at 300 mg/kg (s.c. pentetrazole; [6]) | other results |
| --- | --- | --- | --- | --- | --- | --- | --- |
| O=C1C=C(N2CCOCC2)CN1c1ccc(Cl)cc1 [Compound 4, 1-(4-chlorophenyl)-4-morpholin-4-yl-1,5-dihydropyrrol-2-one] | 0% | 1.91 |  |  |  |  | therapeutic index (Vogel Conflict Test; Vogel Conflict Test): > 50; Changed number of impulses to the control in % (Vogel Conflict Test; 3 mg/kg p.o.): 102%; Changed number of impulses to the control in % (Vogel Conflict Test; 10 mg/kg p.o.): 174%; dose from which an anxiolytic action was detected / equally effective dose (Vogel Conflict Test): 10 mg/kg; responders at 30 mg/kg (s.c. pentetrazole; ip, dose 30 mg/kg, read-out: Action, % of the protected animals): 100%; therapeutic index (elevated maze test; elevated maze test): > 50; proportionate length of stay in the open arms (in words) (elevated maze test; intraperitoneal administration): significantly increased; Activity in % (length of stay in the open arms, control = 100) (elevated maze test; 1 mg/kg): 128 (p < 0.05) %; Activity in % (length of stay in the open arms, control = 100) (elevated maze test; 3 mg/kg): 110%; Activity in % (length of stay in the open arms, control = 100) (elevated maze test; 10 mg/kg): 158 (p < 0.05) %; Activity in % (length of stay in the open arms, control = 100) (elevated maze test; 30 mg/kg): 129% |
| O=C1C=C(N2CCOCC2)CN1c1ccc(OC(F)(F)F)cc1 [Compound 9, 4-morpholin-4-yl-1-(4-trifluoromethoxyphenyl)-1,5-dihydropyrrol-2-one] |  | 2.45 | 148 to 153 °C | 100% |  |  | responders at 10 mg/kg (s.c. pentetrazole; ip, dose 10 mg/kg, read-out: Action, % of the protected animals): 50% |
| Cc1ccc(N2CC(N3CCCCC3)=CC2=O)cc1 [Compound 15, 1-(4-methylphenyl)-4-piperidin-1-yl-1,5-dihydropyrrol-2-one] |  | 2.62 | 174 to 177 °C | 100% | 100% |  |  |
| COc1ccc(N2CC(N3CCOCC3)=CC2=O)cc1 [Compound 7, 1-(4-methoxyphenyl)-4-morpholin-4-yl-1,5-dihydropyrrol-2-one] | 0% | 0.74 | 198 to 202 °C |  |  | 80% |  |
| Cc1cccc(N2CC(N3CCCCC3)=CC2=O)c1 [Compound 12, 1-(3-methylphenyl)-4-piperidin-1-yl-1,5-dihydropyrrol-2-one] | 0% | 2.66 | 117 to 123 °C |  |  | 0% |  |
| O=C1C=C(N2CCOCC2)CN1c1ccc(Cl)cc1 [1-(4-chlorophenyl)-4-morpholin-4-yl-1,5-dihydropyrrol-2-one] |  |  |  |  |  |  | ED50 (maximal electroshock [3]): 19 mg/kg; NT50 neurotoxicity (neurotoxicity): > 500 mg/kg; ED50 [4]: 11 mg/kg |
| O=C1C=C(N2CCOCC2)CN1c1ccc(F)c(Cl)c1 [Compound 10, 1-(3-chloro-4-fluorophenyl)-4-morpholin-4-yl-1,5-dihydropyrrol-2-one] |  | 2.19 | 162 to 166 °C | 100% | 100% |  |  |
| O=C1C=C(N2CCCC2)CN1c1ccc(Cl)cc1 [Compound 17, 1-(4-chlorophenyl)-4-pyrrolidin-1-yl-1,5-dihydropyrrol-2-one] | 66% | 2.6 | 223 to 227 °C |  |  | 0% |  |
| O=C1C=C(N2CCCCCC2)CN1c1ccc(Cl)cc1 [Compound 22, 1-(4-chlorophenyl)-4-azepam-1-yl-1,5-dihydropyrrol-2-one] |  |  |  |  |  |  | Action, % of the protected animals (s.c. pentetrazole; dose 300 mg/kg): 100%; Action, % of the protected animals (maximal electroshock [1]; dose 300 mg/kg): 100%; log P (octanol/water partition coefficient) [2]: 3.40 |
| Cc1ccc(N2CC(N3CCOCC3)=CC2=O)cc1 [Compound 6, 1-(4-methylphenyl)-4-morpholin-4-yl-1,5-dihydropyrrol-2-one] | 100% | 1.42 |  |  | 100% |  |  |
| CC1CCCN(C2=CC(=O)N(c3ccc(Cl)cc3)C2)C1 (centres unmarked) [Compound 19, 1-(4-chlorophenyl)-4-(3-methylpiperidin-1-yl)-1,5-dihydropyrrol-2-one] | 0% | 3.58 | 188 to 189 °C |  | 40% |  |  |
| O=C1C=C(N2CCCCC2)CN1c1ccc(F)cc1 [Compound 13, 1-(4-fluorophenyl)-4-piperidin-1-yl-1,5-dihydropyrrol-2-one] | 0% | 2.35 | 214 to 216 °C |  |  | 0% |  |
| O=C1C=C(N2CCCCC2)CN1c1ccc(Cl)cc1 [Compound 14, 1-(4-chlorophenyl)-4-piperidin-1-yl-1,5-dihydropyrrol-2-one] |  | 3.06 |  | 100% | 100% |  |  |
| O=C1C=C(N2CCOCC2)CN1c1ccccc1Cl [Compound 1, 1-(2-chlorophenyl)-4-morpholin-4-yl-1,5-dihydropyrrol-2-one] |  |  | 154 to 156 °C | 0% | 0% |  | dose from which an anxiolytic action was detected / equally effective dose (Vogel Conflict Test): 3 mg/kg |
| Cc1cccc(N2CC(N3CCOCC3)=CC2=O)c1 [Compound 2, 1-(3-methylphenyl)-4-morpholin-4-yl-1,5-dihydropyrrol-2-one] |  | 1.46 |  | 33% |  | 100% |  |
| O=C1C=C(N2CCOCC2)CN1c1ccc(Br)cc1 [Compound 5, 1-(4-bromophenyl)-4-morpholin-4-yl-1,5-dihydropyrrol-2-one] |  | 2.16 | 230 to 233 °C | 33% | 100% |  |  |
